Assay [1] relates to human mammary cancer cells (MDA-MB-231). Particulars: 1 mM DIME [sic]; within 18 hours; cited from earlier work.
The next assay deals with thyroid iodine uptake. As to conditions: rats; as compared to thyroxine; cited from earlier work.
For the next assay, the system named is malignant tumors. Particulars: cited from earlier work.
Assay [2] has as its system human mammary cancer cells (MDA-MB-231). The experiment in a line: Growth of human mammary cancer cells (Table 2 A). The assay is classed as cell-based. Particulars: 2 μM. The source says: The effects of these three substances on the growth of human mammary cancer cells (MDA-MB-231) and human lung cancer cells (A 549) are summarized in Table 2.
In section (a) of Table 2 the effects of DIME, DIPE and DIPP on the growth of mammary cancer cells, assayed at 48 and 72 hrs, is shown. […] The slightly lesser efficacy of DIPP could be predicted from earlier results obtained with DIME analogs (International Journal of Oncology, 1997, 10, 689-695, FIG. 1) where we have shown that extending the methyl to ethyl substitution (on the carboxyl ester) diminishes cytotoxicity against tumor cells. A similar phenomenon occurs when DIPE is extended to DIPP (i.e. from the ethanone to the propanone).
(×10^3) Cell number per 2 cm^2

Entries after “also recorded” stand apart in the source; their conditions may differ.

For the compound `COC(=O)c1cc(I)c(Oc2ccc(OC)cc2)c(I)c1` [DIME, methyl 3,5-diiodo-4-(4'-methoxyphenoxy)benzoate], in assay [1], the abnormal spindle structures result is reported as “induced abnormal spindle structures”. Further, the “inhibition of uptake of iodine into the thyroid” value in the assay with thyroid iodine uptake is 15%. In the assay with malignant tumors, the “anti-tumor activity in vivo” value is “potential tumoricidal agent both in cell cultures and in vivo; also recorded: highly active both in cellular assays and in vivo”. For the same compound, the Cell number is on record as 60 ×10^3 cell number per 2 cm^2 w in assay [2] (48 hours, control 150) and 65 ×10^3 cell number per 2 cm^2 w in assay [2] (72 hours, control 300).

The values are drawn from patent US5922775A, “Method of treating malignant tumors with ketone thyroxine analogues having no significant hormonal activity” (priority 1997, dated 1999).
